Assay results as given in US20240327334A1, “Covalent Inhibitors As Antiviral Agents” (Enanta Pharmaceuticals, Inc., priority 2022, published 2024).

Assays:
[1] = molecular target: SARS-CoV-2 Papain-like (PLpro) protease (Severe acute respiratory syndrome coronavirus 2, UniProt P0DTD1); assay: SARS-CoV-2 Papain-like (PLpro) protease biochemical enzyme inhibition assay (ubiquitin-fluorophore substrate, Ub-R110); conditions: Ub-R110 substrate; run in duplicate; read-out: PLpro IC50
SARS-CoV-2 replicon = assay: microbe, parasite or virus in culture; format: cell-based; conditions: Severe acute respiratory syndrome coronavirus 2, Huh-7

| SMILES | IC50 [1] [µM] | EC50 (SARS-CoV-2 replicon) [µM] |
| --- | --- | --- |
| O=C(NCC#Cc1nccs1)C(=O)NCc1ccccc1C(=O)NC1(c2cc(Cl)cc(-c3cnc(C4CC4)nc3)c2)CC1 [Example 83] | < 0.1 | < 1 |
| Cc1nn(C)c(C)c1-c1cc(C2(NC(=O)c3ccccc3CNC(=O)C(=O)N[C@@H](C)C#Cc3nccs3)CC2)cc2ccccc12 [Example 298] | < 0.1 | < 1 |
| C#CCNC(=O)C(=O)NCc1ccc(C#N)cc1C(=O)NC1(c2ccc(F)c3ccccc23)CC1 [Example 53] | < 0.1 | < 1 |
| O=C(NCC#Cc1cnc(C(F)(F)F)nc1)C(=O)NCc1ccccc1C(=O)NC1(c2ccc3ccccc3c2)CC1 [Example 181] | < 0.1 | < 1 |
| COc1cccc(C#CCNC(=O)C(=O)NCc2ccccc2C(=O)NC2(c3ccc4ccccc4c3)CC2)n1 [Example 186] | < 0.1 | < 1 |
| C[C@@H](NC(=O)c1cc(F)c(F)cc1CNC(=O)C(=O)NCC#N)c1cccc2ccccc12 [Example 363] | 0.1 to 1 | < 1 |
| C#CCNC(=O)C(=O)NCc1ccccc1C(=O)NC1(c2cc(C#C)cc(C(F)(F)F)c2)CC1 [Example 69] | < 0.1 | < 1 |
| C#CCNC(=O)C(=O)NCc1ccccc1C(=O)NC1(c2ccc(OC)c(Br)c2)CC1 [Example 230] | < 0.1 | < 1 |
| N#Cc1cc(F)c(C#CCNC(=O)C(=O)NCc2ccccc2C(=O)NC2(c3ccc4ccccc4c3)CC2)c(F)c1 [Example 87] | < 0.1 | < 1 |
| O=C(NCC#CC(=O)N1CCCO1)C(=O)NCc1ccccc1C(=O)NC1(c2cccc3ccccc23)CC1 [Example 526] | < 0.1 | < 1 |
| C#C[C@H](C)NC(=O)C(=O)NCc1ccccc1C(=O)NC1(c2cccc3ccccc23)CC1 [Example 156] | < 0.1 | < 1 |
| CC(C)(O)Cn1cc(-c2cc(F)cc(C3(NC(=O)c4ccccc4CNC(=O)C(=O)NCC#Cc4ncccc4Cl)CC3)c2)cn1 [Example 281] | < 0.1 | < 1 |
| N#C/C=C/CNC(=O)C(=O)NCc1ccccc1C(=O)NC1(c2ccc3c4c(cccc24)CC3)CC1 [Example 438] | < 0.1 | < 1 |
| O=C(NCC#Cc1nccs1)C(=O)NCc1ccccc1C(=O)NC1(c2ccn3nccc3c2)CC1 [Example 399] | < 0.1 | < 1 |
| N#CCNC(=O)C(=O)NCc1ccccc1C(=O)NC1(c2ccc(F)c(-c3cccs3)c2)CC1 [Example 219] | < 0.1 | 1 to 10 |
| N#CCNC(=O)C(=O)NCc1ccccc1C(=O)NC1(c2cc(-c3cnn(C4CC4)c3)cc(C(F)(F)F)c2)CC1 [Example 470] | < 0.1 | 1 to 10 |
| C[C@@H](C#Cc1c(F)cc(F)cc1C#N)NC(=O)C(=O)NCc1ccccc1C(=O)NC1(c2ccc3nn(C)cc3c2)CC1 [Example 105] | < 0.1 | < 1 |
| C[C@@H](C#Cc1ncc(F)cn1)NC(=O)C(=O)NCc1ccccc1C(=O)NC1(c2cc(F)cc(-c3cnn(C4CC4)c3)c2)CC1 [Example 144] | < 0.1 | < 1 |
| O=C(NCC#Cc1nc2ccccc2s1)C(=O)NCc1ccccc1C(=O)NC1(c2ccc3ccccc3c2)CC1 [Example 177] | 0.1 to 1 | 1 to 10 |
| N#CCNC(=O)C(=O)NCc1ccccc1C(=O)NC1(c2cccc3cc(F)ccc23)CC1 [Example 54] | < 0.1 | < 1 |
| N#CCNC(=O)C(=O)NCc1ccccc1C(=O)NC1(c2cc(F)cc(Br)c2)CC1 [Example 218] | 0.1 to 1 | > 10 |
| N#CCNC(=O)C(=O)NCc1ccccc1C(=O)NC1(c2cc(C#N)cc3ccccc23)CC1 [Example 294] | < 0.1 | < 1 |
| N#Cc1ccc(C#CCNC(=O)C(=O)NCc2ccccc2C(=O)NC2(c3ccc4ccccc4c3)CC2)cc1 [Example 171] | < 0.1 | < 1 |
| C#CCNC(=O)C(=O)NCc1ccccc1C(=O)NC1(c2cc(-c3cnn(C(F)F)c3)cc(C(F)(F)F)c2)CC1 [Example 473] | 0.1 to 1 | 1 to 10 |
